# In ChEMBL document CHEMBL4043133, “Discovery of a novel B-cell lymphoma 6 (BCL6)-corepressor interaction inhibitor by utilizing structure-based drug design” (Bioorg Med Chem, 2017):
# What was measured:
# BCoR-BCL6 [1] = target: T1, BCoR-BCL6 (Homo sapiens, UniProt P41182)
# Description: Inhibition of C-terminal biotin-labelled BCoR/wild-type BCL6 BTB domain (unknown origin) protein-protein interaction by ELISA
# [2] = target: T2, B-cell lymphoma 6 protein (Homo sapiens, UniProt P41182)
# Description: Binding affinity to wild-type avi-tagged BCL6 BTB domain (unknown origin) by SPR analysis
# [3] = Permeability of the compound at pH 7.4 at 10 umol/L after 3 hrs by PAMPA; assay type: physicochemical; conditions: for Papp at 3 h, 10 µM: PAMPA, pH 7.4, read-out: permeability; for permeability: pampa, pH 7.4, 3 h, 10 µM
# [4] = Aqueous solubility of the compound in aqueous buffer at pH 6.8 by UV-absorbance analysis; assay type: physicochemical
# [5] = target: T2, B-cell lymphoma 6 protein; test: Displacement of A488-SMRT from BCL6 BTB domain (unknown origin) by fluorescence polarization assay
# [6] = Cytotoxicity against human HepG2 cells assessed as intracellular ATP levels at 30 uM after 24 hrs by CellTiter-Glo assay relative to control; assay type: cell-based; conditions: read-out: Activity
# [7] = Volume of distribution at steady state in mouse at 1 mg/kg, po or 0.1 mg/kg, iv administered as cassette dosing; assay type: ADME, organism-based; conditions: in vivo, read-out: Vdss
# [8] = Cmax in mouse at 1 mg/kg, po administered as cassette dosing; assay type: ADME, organism-based; design: dose 1 mg/kg, route oral; conditions: in vivo
# [9] = AUC in mouse at 1 mg/kg, po administered as cassette dosing; assay type: ADME, organism-based; conditions: in vivo
# [10] = Tmax in mouse at 1 mg/kg, po administered as cassette dosing; assay type: ADME, organism-based; conditions: in vivo
# [11] = Total clearance in mouse at 1 mg/kg, po or 0.1 mg/kg, iv administered as cassette dosing; assay type: ADME, organism-based; conditions: in vivo
# BCoR-BCL6 [12] = target: T1, BCoR-BCL6; test: Inhibition of recombinant human BCoR (112 to 753 residues) protein interaction with recombinant GAL4-fused BCL6 (5 to 129 residues) expressed in HEK293T cells measured after 20 hrs by luciferase reporter gene based mammalian two-hybrid assay; assay type: cell-based, HEK-293T
# [13] = Oral bioavailability in mouse at 1 mg/kg administered as cassette dosing; assay type: ADME, organism-based; conditions: in vivo
# [14] = Mean residence time in mouse at 1 mg/kg, po administered as cassette dosing; assay type: ADME, organism-based; conditions: in vivo
SMILES,IC50 (BCoR-BCL6 [1]) [µM],"Papp at 3 h, 10 µM [3] [×10⁻⁶ cm/s]",solubility [4] [µg/mL],further results
Nc1cc(Nc2ccccc2)c2nonc2c1[N+](=O)[O-],69,,,
O=C(O)CC(C(=O)O)N1C(=O)/C(=C2/C(=O)Nc3ccc(Br)cc32)SC1=S (centres undefined),200,,,IC50 [5]: 212 µM
O=c1[nH]c2ccc(Nc3ccc([N+](=O)[O-])cc3Br)cc2[nH]1,83,,,
O=c1[nH]c2ccc(Nc3ccc([N+](=O)[O-])cc3C(F)(F)F)cc2[nH]1,> 300,,,
NC(=O)c1ccc(Nc2ccc3[nH]c(=O)[nH]c3c2)c(Cl)c1,43,,,
O=C1Cc2cc(Nc3cc(OC4CCOCC4)c([N+](=O)[O-])cc3Cl)ccc2N1,,28.8,12,"viability at 24 h, 30 µM [6]: 99%"
O=C(O)c1ccc(Nc2ccc3[nH]c(=O)[nH]c3c2)c(Cl)c1,62,,,
N#Cc1ccc(Nc2ccc3[nH]c(=O)[nH]c3c2)c(Cl)c1 [TP-021n],110,,,

# Continued by falling IC50 (BCoR-BCL6 [1]), values first:
IC50 (BCoR-BCL6 [1]) [µM],"Papp at 3 h, 10 µM [3] [×10⁻⁶ cm/s]",solubility [4] [µg/mL],SMILES,further results
14,,,O=[N+]([O-])c1c(NCCCO)cc(Nc2ccc(F)cc2)c2nonc12,Kd [2]: 24 µM
8.6,,,COC(=O)c1ccc(Nc2ccc3[nH]c(=O)[nH]c3c2)c(Cl)c1,
4.5,,,O=c1[nH]c2ccc(Nc3ccc([N+](=O)[O-])cc3Cl)cc2[nH]1,Kd [2]: 5 µM
4.3,,,N#Cc1cc([N+](=O)[O-])ccc1Nc1ccc2[nH]c(=O)[nH]c2c1,
0.43,15.1,0.42,CCOC(=O)CCNc1cc(Nc2ccc3[nH]c(=O)[nH]c3c2)c(Cl)cc1[N+](=O)[O-],
0.24,,0.09,O=c1[nH]c2ccc(Nc3cc(NCCCO)c([N+](=O)[O-])cc3Cl)cc2[nH]1,permeability [3]: Impermeable; IC50 (BCoR-BCL6 [12]): > 100 µM
0.22,4.5,18,O=c1[nH]c2ccc(Nc3cc(OC4CCOCC4)c([N+](=O)[O-])cc3Cl)cc2[nH]1,"viability at 24 h, 30 µM [6]: 100%"
0.15,14.7,< 0.23,O=c1[nH]c2ccc(Nc3cc(NCc4cccnc4)c([N+](=O)[O-])cc3Cl)cc2[nH]1,
0.13,10.1,0.61,O=c1[nH]c2ccc(Nc3cc(NC4CCOCC4)c([N+](=O)[O-])cc3Cl)cc2[nH]1,
0.13,,> 72,O=C(O)CCNc1cc(Nc2ccc3[nH]c(=O)[nH]c3c2)c(Cl)cc1[N+](=O)[O-],permeability [3]: Impermeable
0.1,20.6,12,O=C1CCc2cc(Nc3cc(OC4CCOCC4)c([N+](=O)[O-])cc3Cl)ccc2N1,"Vd [7]: 1.51 L/kg; Cmax [8]: 233 ng/mL; AUC [9]: 1270 ng·h/mL; Tmax [10]: 2 h; clearance [11]: 10.5 mL/min/kg; IC50 (BCoR-BCL6 [12]): 0.72 µM; viability at 24 h, 30 µM [6]: 83%; bioavailability [13]: 79.9%; MRT [14]: 3.3 h"
